Experimental data taken from article PMC9234964, “Design, Synthesis, and Biological Evaluation of a Novel Series of 4-Guanidinobenzoate Derivatives as Enteropeptidase Inhibitors with Low Systemic Exposure for the Treatment of Obesity” (Journal of Medicinal Chemistry, 2022).
Structures can show the parent of a compound that is named as a salt. Where two headings read alike, the source gives them in different places.

How the values were obtained:
human enteropeptidase [1] = biological target: T1, human enteropeptidase (Homo sapiens, UniProt P98073); assay: Human enteropeptidase enzyme assay; assay type: biochemical
T1 construct: purchased ITSI-Biosciences, LLC #REN-260
T1 sequence (P98073 whole entry): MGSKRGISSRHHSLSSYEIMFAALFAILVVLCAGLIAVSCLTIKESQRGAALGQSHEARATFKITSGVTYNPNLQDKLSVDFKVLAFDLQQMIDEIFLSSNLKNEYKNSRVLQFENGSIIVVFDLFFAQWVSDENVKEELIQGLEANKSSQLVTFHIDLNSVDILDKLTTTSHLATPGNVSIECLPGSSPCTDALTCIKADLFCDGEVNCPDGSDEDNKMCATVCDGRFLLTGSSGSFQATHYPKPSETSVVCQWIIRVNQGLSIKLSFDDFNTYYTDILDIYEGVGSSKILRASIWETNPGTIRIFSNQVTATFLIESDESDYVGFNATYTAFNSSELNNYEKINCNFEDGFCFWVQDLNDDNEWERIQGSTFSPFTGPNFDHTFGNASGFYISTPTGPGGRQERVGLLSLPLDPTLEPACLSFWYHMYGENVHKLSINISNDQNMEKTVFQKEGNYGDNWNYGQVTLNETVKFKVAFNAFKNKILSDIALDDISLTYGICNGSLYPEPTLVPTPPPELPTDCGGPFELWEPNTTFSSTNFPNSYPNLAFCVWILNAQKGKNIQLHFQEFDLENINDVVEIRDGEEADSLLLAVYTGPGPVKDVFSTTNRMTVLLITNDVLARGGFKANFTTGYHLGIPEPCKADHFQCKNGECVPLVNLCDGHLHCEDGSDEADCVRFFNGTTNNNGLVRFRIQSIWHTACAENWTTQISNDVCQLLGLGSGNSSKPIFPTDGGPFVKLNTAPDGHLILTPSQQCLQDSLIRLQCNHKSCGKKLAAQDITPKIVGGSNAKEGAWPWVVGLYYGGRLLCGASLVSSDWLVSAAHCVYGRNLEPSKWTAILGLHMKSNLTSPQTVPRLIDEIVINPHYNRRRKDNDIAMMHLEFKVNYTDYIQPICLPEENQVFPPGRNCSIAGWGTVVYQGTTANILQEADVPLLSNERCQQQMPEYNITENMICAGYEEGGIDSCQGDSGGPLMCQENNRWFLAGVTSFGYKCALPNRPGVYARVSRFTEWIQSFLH
Description: Human recombinant enteropeptidase (#REN-260, ITSI-Biosciences, LLC) was diluted with an assay buffer (50 mM tricine (pH 8.0), 0.01(w/v)% Tween 20, 10 mM CaCl2) to prepare a 24 mU/mL enzyme solution. Subsequently, 5FAM–Abu–[…]CPQ2)–Lys–Lys–NH2 (purity: 97.2%, CPC Scientific, Inc.) was diluted with an assay buffer to prepare a 2.1 μM substrate solution. Compounds were dissolved in DMSO and then diluted in the assay buffer. The compound solution (5 μL/well) and the substrate solution (5 μL/well) were added to a 384-well black plate (#784076, Greiner Bio-One) and mixed. Then, the enzyme solution (5 μL/well) was added to the plate and mixed to start the reaction. The fluorescence intensity was measured at an excitation wavelength of 485 nm and a fluorescence wavelength of 535 nm using a fluorescence plate reader EnVision (PerkinElmer Inc.). Also, the same reaction as above was performed except that the test compound was not added (test compound non-supplemented group). In addition, the same reaction as above was performed except that neither the test compound nor the enzyme was added (control group).
Inhibition rate (%) = (1 – (fluorescence intensity of the test compound supplemented group – fluorescence intensity of the control group)/(fluorescence intensity of the test compound non-supplemented group – fluorescence intensity of the control group)) × 100.

[2] = PAMPA (parallel artificial membrane permeability assay); assay type: in vitro ADME; details: for Papp: PAMPA
High-Fat-Diet-Fed Mice = assay: Increase in fecal protein output in high-fat-diet-fed mice; assay type: in vivo, mouse; details: 10 mg/kg, oral
Description: A high-fat diet (HFD)-fed mouse (D12079B diet, male, 14–21 weeks old) was used for the in vivo assay. For compound screening, mice were orally administered with either the test compound (10 mg/kg) or 0.5% methylcellulose (MC) as a vehicle control. For the assessment of efficacy by systemic exposure of the compound, mice were subcutaneously administered with compound 2a (10 mg/kg) or saline as a vehicle control and compared with those administered oral treatment (60 mg/kg). Doses were selected to achieve equivalent systemic exposure as the area under the curve over 24 h based on pharmacokinetic data of both oral and subcutaneous administration. Whole feces were collected overnight, and the fecal protein output was evaluated as described previously.[33]

[3] = Kinetic aqueous solubility at pH 1.2/6.8; assay type: physicochemical; details: aqueous medium, kinetic from dmso stock
[4] = Aqueous stability at pH 1.2/6.8; assay type: physicochemical; details: 24 h; for stability at pH 1.2 (% decomposed): pH 1.2, 37 °C; for stability at pH 6.8 (% decomposed): pH 6.8, 37 °C
Description: Sample solutions in pH 1.2/6.8 media (first/second fluids for the disintegration test in the Japanese Pharmacopoeia 17th edition, including 10% dimethyl sulfoxide if needed, 10 μg/mL) were prepared for the compounds and incubated at 37 °C. The sample solutions were measured initially and at 24 h using HPLC, and peak analysis was conducted. Residual contents (%) of the compounds in pH 1.2/6.8 media at 37 °C after 24 h of incubation of the initial solutions were calculated using the peak areas.

DIO mice = details: growth phase; cited from earlier work
human enteropeptidase [5] = biological target: T1, human enteropeptidase; assay: Dissociation assay (recovery of active enzyme after rapid dilution); assay type: biochemical; details: rapid dilution after 2 h preincubation of compound and enzyme
Text: Although not all reaction constants for 1c could be identified, the in vitro IC50 value could be used as an indicator of the combination of k1, k–1, and k2. In this case, the IC50 value of a compound is derived from its affinity for enteropeptidase (k1 and k–1) and its reactivity against enteropeptidase (k2). […] As the affinity of a compound for enteropeptidase is expected to largely contribute to the IC50 value based on initial velocities (IC50(initial)) relative to the IC50 value based on the steady state (IC50(app)), we performed chemical modifications based on IC50(initial). […] Because T1/2 can be an indicator of k3, we focused on compounds with low IC50(initial) values and long T1/2 values.
For dissociation assay, compounds were dissolved in DMSO and then diluted in assay buffer (50 mM Tricine pH 8.0, 0.01(w/v)% Tween20, 10 mM CaCl2). 10 μL of compound solution was added in 96-well plate (corning), and then, 10 μL of 100 mU/mL human recombinant enteropeptidase (ITSI-Biosciences) solution was added into the plate and incubated at room temperature for 2 h. […] After incubation, 2 μL of the compound-enzyme mixture was transferred to a 96-well black plate (Corning) and 200 μL of substrate solution (3 μM 5FAM–Abu–[…]CPQ2)–Lys–Lys–NH2 (CPC Scientific)) was added into the well. By rapid dilution, the inhibitor concentration went to 10-fold below the IC50 from 10-fold above the IC50. The fluorescence was measured each 2 min at excitation wavelength 485 nm and emission wavelength 535 nm by EnVision (Perkin Elmer). The progress curves were fitted to following equation to determine the values for koff and dissociation half-life T1/2 according to the following equations. [drawing 4] 1 where t is time and F is fluorescence from initial rate vo to steady state rate vs. [drawing 5] 2

[6] = 6 min, supplement csv, unit inferred, read-out: human enteropeptidase IC50 (6 min)
[7] = 120 min, supplement csv, unit inferred, read-out: human enteropeptidase IC50 (120 min)
[8] = 6 min incubation of enzyme, substrate and compound at room temperature, 95% confidence intervals in parentheses, read-out: Human enteropeptidase IC50(initial)
[9] = 120 min incubation of enzyme, substrate and compound at room temperature, 95% confidence intervals in parentheses, read-out: Human enteropeptidase IC50(app)
[10] = pH 1.2, simulated gastric fluid, read-out: Kinetic aqueous solubility at pH 1.2
[11] = pH 6.8, aqueous buffer, read-out: Kinetic aqueous solubility at pH 6.8

Row | Compound | IC50 (human enteropeptidase [1]; [8]) [nM] | IC50 (human enteropeptidase [1]; [9]) [nM] | fecal protein output (fold of 2a) (High-Fat-Diet-Fed Mice) | other results
1 | CS(=O)(=O)O.N=C(N)Nc1ccc(C(=O)Oc2ccccc2)cc1 [1b] | – | – | – | IC50 (human enteropeptidase [1]; [6]): 5600 nM; IC50 (human enteropeptidase [1]; [7]): 400 nM; PAMPA at pH 5.0 ([2]; pH 5.0): <2 nm/sec; PAMPA at pH 7.4 ([2]; pH 7.4): <2 nm/sec
2 | N=C(N)Nc1ccc(C(=O)Oc2cccc(C3=NO[C@@](CC(=O)O)(C(=O)O)C3)c2)cc1 [6c, (5S)-3-{3-[(4-Carbamimidamidobenzoyl)oxy]phenyl}-5-(carboxymethyl)-4,5-dihydro-1,2-oxazole-5-carboxylic Acid] | 26 | 1.8 | 1.23 fold of 2a | –
3 | N=C(N)Nc1ccc(C(=O)Oc2cccc(C(=O)N[C@@H](CC(=O)O)C(=O)O)c2)cc1.O=C(O)C(F)(F)F [4b, N-{3-[(4-Carbamimidamidobenzoyl)oxy]benzoyl}-L-aspartic Acid Trifluoroacetic Acid Salt] | 13 | 0.82 | 0.82 fold of 2a | solubility kinetic [3, 10]: > 91 µg/mL; solubility kinetic [3, 11]: > 89 µg/mL; stability at pH 1.2 (% decomposed) [4]: 3.9 % decomposed; stability at pH 6.8 (% decomposed) [4]: 8.6 % decomposed
4 | Cc1cc(C(=O)Oc2ccc(CC(=O)N[C@@H](CC(=O)O)C(=O)O)cc2)ccc1NC(=N)N [3a, N-({4-[(4-Carbamimidamido-3-methylbenzoyl)oxy]phenyl}acetyl)-L-aspartic Acid] | > 3300 | 680 | – | fold decrease in IC50(initial) relative to 2a (human enteropeptidase [1]; 6 min, methyl group at the 3-position): more than 30 fold
5 | N=C(N)Nc1ccc(C(=O)Oc2ccc(CC(=O)N[C@@H](CCC(=O)O)C(=O)O)cc2)cc1 [2c, N-({4-[(4-Carbamimidamidobenzoyl)oxy]phenyl}acetyl)-L-glutamic Acid Hydrochloride] | 120 | 7.9 | – | –
6 | N=C(N)Nc1ccc(C(=O)Oc2ccc3c(c2)OC(CC(=O)N[C@@H](CC(=O)O)C(=O)O)C3)cc1 (stereo partly drawn) [5a, N-({6-[(4-Carbamimidamidobenzoyl)oxy]-2,3-dihydro-1-benzofuran-2-yl}acetyl)-L-aspartic Acid] | 180 | 14 | – | –
7 | CC(=O)N[C@@H](C)C(=O)N[C@@H](Cc1ccccc1)C(=O)N[C@@H](CCCCN)B1O[C@@H]2C[C@@H]3C[C@@H](C3(C)C)[C@]2(C)O1 [OBE-2008] | – | – | – | rate of body weight gain (DIO mice): significantly reduced
8 | N=C(N)Nc1ccc(C(=O)Oc2ccc(CC(=O)N[C@@H](CC(N)=O)C(=O)O)cc2)cc1 [2b, N^2-({4-[(4-Carbamimidamidobenzoyl)oxy]phenyl}acetyl)-L-asparagine Trifluoroacetic Acid Salt] | 310 | 23 | – | –
9 | N=C(N)Nc1ccc(C(=O)Oc2ccc3c(c2)OC[C@@H]3CC(=O)N[C@@H](CC(=O)O)C(=O)O)cc1 [(R)-5b, N-({(3R)-6-[(4-Carbamimidamidobenzoyl)oxy]-2,3-dihydro-1-benzofuran-3-yl}acetyl)-L-aspartic Acid] | 84 | 7.7 | 1.26 fold of 2a | –
10 | N=C(N)Nc1ccc(C(=O)Oc2ccc(CC(=O)N[C@@H](CC(=O)O)C(=O)O)cc2)c(F)c1 [3d, N-({4-[(4-Carbamimidamido-2-fluorobenzoyl)oxy]phenyl}acetyl)-L-aspartic Acid] | 7.4 | 0.81 | – | T1/2, half-time of dissociation from human enteropeptidase (human enteropeptidase [5]): 6.1 min
11 | N=C(N)Nc1ccc(C(=O)Oc2ccc(C(=O)N[C@@H](CC(=O)O)C(=O)O)cc2)cc1.O=C(O)C(F)(F)F [4c, N-{4-[(4-Carbamimidamidobenzoyl)oxy]benzoyl}-L-aspartic Acid Trifluoroacetic Acid Salt] | 65 | 3.2 | 0.88 fold of 2a | solubility kinetic [3, 10]: 69 µg/mL; solubility kinetic [3, 11]: > 88 µg/mL
12 | N=C(N)Nc1ccc(C(=O)Oc2ccc(CC(=O)NCC(=O)O)cc2)cc1.O=C(O)C(F)(F)F [1c, N-({4-[(4-Carbamimidamidobenzoyl)oxy]phenyl}acetyl)glycine Trifluoroacetic Acid Salt] | – | – | – | IC50 (human enteropeptidase [1]; [6]): 540 nM; IC50 (human enteropeptidase [1]; [7]): 30 nM; PAMPA at pH 5.0 ([2]; pH 5.0): 2 nm/sec; PAMPA at pH 7.4 ([2]; pH 7.4): 2 nm/sec
13 | Cc1cc(OC(=O)c2ccc(NC(=N)N)cc2)no1.Cl [1a] | – | – | – | IC50 (human enteropeptidase [1]; [6]): 1500 nM; Papp ([2]; pH 7.4, read-out: PAMPA at pH 7.4): 0.3 ×10⁻⁶ cm/s; Papp ([2]; pH 5.0, read-out: PAMPA at pH 5.0): 0.5 ×10⁻⁶ cm/s
14 | Cc1cc(NC(=N)N)ccc1C(=O)Oc1ccc(CC(=O)N[C@@H](CC(=O)O)C(=O)O)cc1 [3b, N-({4-[(4-Carbamimidamido-2-methylbenzoyl)oxy]phenyl}acetyl)-L-aspartic Acid] | 940 | 54 | – | T1/2, half-time of dissociation from human enteropeptidase (human enteropeptidase [5]): >120 min
15 | N=C(N)Nc1ccc(C(=O)Oc2cccc(CC(=O)N[C@@H](CC(=O)O)C(=O)O)c2)cc1.O=C(O)C(F)(F)F [4a, N-({3-[(4-Carbamimidamidobenzoyl)oxy]phenyl}acetyl)-L-aspartic Acid Trifluoroacetic Acid Salt] | 32 | 1.6 | 0.97 fold of 2a | solubility kinetic [3, 10]: > 86 µg/mL; solubility kinetic [3, 11]: > 92 µg/mL; stability at pH 1.2 (% decomposed) [4]: 2.8 % decomposed; stability at pH 6.8 (% decomposed) [4]: 5.8 % decomposed
16 | N=C(N)Nc1ccc(C(=O)Oc2ccc(CC(=O)N[C@@H](CC(=O)O)C(=O)O)cc2)c(Cl)c1 [3c, N-({4-[(4-Carbamimidamido-2-chlorobenzoyl)oxy]phenyl}acetyl)-L-aspartic Acid] | 57 | 5.6 | – | T1/2, half-time of dissociation from human enteropeptidase (human enteropeptidase [5]): 14 min
